Laboratory results: PMC5577582 (Toxins, 2017)
Positions of bridges follow the written chain, without caps; N, C: chain ends. Residues, ends and D or L forms follow the SMILES beside them.

Assays:
[1] = assay type: physicochemical; conditions: peptide 1 mg/mL in 9:1 v/v H2O/D2O, heated 20 to 80 °C, 500 MHz 1D 1H NMR
Method: A Bruker 500 MHz Avance nuclear magnetic resonance (NMR) spectrometer was used to heat the peptides (1 mg/mL in 9:1 v/v H2O/D2O) and to monitor structural changes at temperatures ranging from 20 to 80 °C. One-dimensional (1D) ^1H NMR spectra and two-dimensional (2D) nuclear Overhauser effect spectroscopy (NOESY) (200 ms mixing time) spectra were acquired and processed using TopSpin 3.5 (Bruker, Billerica, MA, USA) and CCPNMR Analysis 2.4.1 was used in the assignment of the NOE spectra.

[2] = 30 μM peptide, 24 h; for Degradation at pH 12: phosphate buffer pH 12, 37 °C, RP-HPLC trace compared to pH 4
[3] = assay type: physicochemical; conditions: 100 °C in water for 30 min, heating block, cooled to 25 °C, C18 RP-HPLC at 215 nm, MALDI-MS of the products
[4] = phosphate buffer adjusted to pH 12; conditions: 37 °C, up to 24 h
[5] = Human serum isolated from male AB plasma; conditions: 37 °C, up to 24 h

Compound | 1D 1H NMR spectral changes at 80 °C [1] | not cleaved [5] | also measured
CC[C@H](C)[C@H](NC(=O)[C@H](CCC(=O)O)NC(=O)[C@H](Cc1ccc(O)cc1)NC(=O)[C@H](CCCCN)NC(=O)[C@@H]1CSSC[C@@H]2NC(=O)[C@H](CCC(N)=O)NC(=O)[C@H](CC(=O)O)NC(=O)[C@H](CC(N)=O)NC(=O)[C@H](CO)NC(=O)[C@@H]3CCCN3C(=O)[C@H](CC(N)=O)NC(=O)[C@@H]3CSSC[C@H](NC(=O)[C@H](C(C)C)NC(=O)[C@H](CC(C)C)NC(=O)[C@H](CC(N)=O)NC(=O)[C@H](CO)NC(=O)[C@H](CO)NC(=O)[C@H](CCCCN)NC(=O)[C@H](CSSC[C@H](NC(=O)[C@@H](N)CCC(=O)O)C(=O)N[C@@H](CC(C)C)C(=O)NCC(=O)N[C@@H](Cc4ccccc4)C(=O)NCC(=O)N[C@@H](CCCCN)C(=O)NCC(=O)N3)NC2=O)C(=O)N[C@@H](CO)C(=O)N[C@@H](CCCNC(=N)N)C(=O)N[C@@H](CCCCN)C(=O)N[C@@H](Cc2c[nH]cn2)C(=O)N[C@@H](CCCNC(=N)N)C(=O)N[C@@H](Cc2c[nH]c3ccccc23)C(=O)N1)C(N)=O [HnTx-IV] | peak broadening and loss of intensity |  | Degradation at pH 12 [2]: completely degraded
CC[C@H](C)[C@H](NC(=O)[C@H](CCC(N)=O)NC(=O)[C@H](Cc1ccc(O)cc1)NC(=O)[C@H](CCCCN)NC(=O)[C@@H]1CSSC[C@@H]2NC(=O)[C@H](CCCCN)NC(=O)[C@H](CC(=O)O)NC(=O)[C@H](CC(N)=O)NC(=O)[C@H](CO)NC(=O)[C@@H]3CCCN3C(=O)[C@H](CC(N)=O)NC(=O)[C@@H]3CSSC[C@H](NC(=O)[C@H](C(C)C)NC(=O)[C@H](CC(C)C)NC(=O)[C@H](CC(N)=O)NC(=O)[C@@H]4CCCN4C(=O)[C@H](CCCNC(=N)N)NC(=O)[C@H](CSSC[C@H](NC(=O)[C@@H](N)CC(=O)O)C(=O)N[C@@H](CC(C)C)C(=O)NCC(=O)N[C@@H](Cc4ccccc4)C(=O)N[C@@H](CC(C)C)C(=O)N[C@@H](Cc4c[nH]c5ccccc45)C(=O)N[C@@H](CCCCN)C(=O)N3)NC2=O)C(=O)N[C@@H](CO)C(=O)N[C@@H](CCCNC(=N)N)C(=O)N[C@@H](CCCCN)C(=O)N[C@@H](CC(=O)O)C(=O)N[C@@H](CCCCN)C(=O)N[C@@H](Cc2c[nH]c3ccccc23)C(=O)N1)C(=O)O [PaurTx-3] (H-DCLGFLWKCNPSNDKCCRPNLVCSRKDKWCKYQI-OH; disulfide 2-17, 9-23, 16-30) | maintained narrow peaks but also showed some loss in intensity |  | Degradation at pH 12 [2]: larger proportion of the folded peptide remaining
CC(C)C[C@@H]1NC(=O)[C@H](Cc2c[nH]cn2)NC(=O)[C@H](CCCCN)NC(=O)[C@@H]2CSSC[C@H](NC(=O)[C@@H](N)[C@@H](C)O)C(=O)N[C@@H](CCCNC(=N)N)C(=O)N[C@@H](Cc3ccc(O)cc3)C(=O)N[C@@H](CC(C)C)C(=O)N[C@@H](Cc3ccccc3)C(=O)NCC(=O)NCC(=O)N[C@H]3CSSC[C@H](NC(=O)[C@H](C)NC1=O)C(=O)N[C@@H](CCCNC(=N)N)C(=O)N[C@@H](CO)C(=O)N[C@@H](CC(=O)O)C(=O)NCC(=O)N[C@@H](CCCCN)C(=O)N[C@@H](Cc1ccc(O)cc1)C(=O)N[C@H](C(=O)N[C@@H](C)C(=O)N[C@@H](Cc1c[nH]c4ccccc14)C(=O)N[C@@H](CC(=O)O)C(=O)NCC(=O)N[C@H](C(=O)N[C@@H](Cc1ccccc1)C(=O)O)[C@@H](C)O)CSSC[C@H](NC(=O)[C@H](CC(=O)O)NC(=O)[C@H](C)NC(=O)[C@H]([C@@H](C)O)NC(=O)[C@H]([C@@H](C)O)NC(=O)[C@H](CCCCN)NC3=O)C(=O)N2 [SgTx-1] | peak broadening and loss of intensity |  | Analytical RP-HPLC trace after boiling [3]: minor degradation product; Loss of peptide at pH 2 ([2]; phosphate buffer pH 2, 37 °C, RP-HPLC relative to pH 4): small loss of peptide; Mass loss of degradation product from native peptide after boiling: 18 Da
DCLGFLWKCNPSNDKCCRPNLVCSRKDKWCKYQI |  | more than 90% peptide remaining after a 24 h incubation | cleaved bond [4]: Q-Ile34, 24 h
DCLGFMRKCIPDNDKCCRPNLVCSRTHKWCKYVF* |  | more than 90% peptide remaining after a 24 h incubation | 
ECLEIFKACNPSNDQCCKSSKLVCSRKTRWCKYQI* |  | more than 90% peptide remaining after a 24 h incubation | 
ECLGFGKGCNPSNDQCCKSSNLVCSRKHRWCKYEI* |  | more than 90% peptide remaining after a 24 h incubation | 
